Legend:
[1] = system: lean body mass; details: humans; Deutz et al., Clin Nutr. 2013; cited from earlier work
[2] = system: rats subjected to dexamethasone-induced muscle loss; assay: Dexamethasone-induced muscle loss in rats: soleus muscle mass after 21 days; type: in vivo, Sprague-Dawley rats; details: 200 mg/kg/day white curcumin alone, co-administered with 0.1 mg/kg/day dexamethasone i.p., day 21, FIG. 1, t-test P<0.05
Protocol: A study was carried out to investigate the effect of a composition comprising HMB and white curcumin (THC) in a well-established animal model for human muscle loss (β-Hydroxy-β-methylbutyrate (HMB) normalizes dexamethasone-induced autophagy-lysosomal pathway in skeletal muscle. Giron M D, Vilchez J D, Shreeram S, Salto R, Manzano M, Cabrera E, Campos N, Edens N K, Rueda R, Lopez-Pedrosa J M. PLoS One. 2015 Feb. 6; 10(2):e0117520. doi: 10.1371/journal.pone.0117520. eCollection 2015).
Experimental design—Male Sprague-Dawley rats (8-10 weeks old) (n=42) having a body weight of 270-310 g were randomly assigned to seven experimental groups (six rats per group). Groups 1-6 were administered 0.1 mg/kg/day dexamethasone (a synthetic glucocorticoid) by intraperitoneal injection for 21 days to induce muscle loss. The dexamethasone was administered at 2 mL/kg of 1.75 mg dexamethasone in 35 mL saline. Group 7 (a sham control) was administered saline without the dexamethasone.
Group 1 (a pathological control) was administered the 0.1 mg/kg/day dexamethasone alone. […]
The body weight of each rat was measured daily. On day 21 the soleus and rectus femoris muscles from each rat were collected and weighed and the lean mass of each rat was recorded. The fore limb and hind limb grip strengths were also measured. […]

SMILES | minimum dose of HMB at which benefits (preserving lean body mass and muscle strength) occur [1] | soleus muscle mass relative to the pathological control [2]
CC(C)(O)CC(=O)O [HMB, 3-hydroxy-3-methylbutanoic acid] | 50 mg/kg/day | –
COc1cc(CCC(=O)CC(=O)CCc2ccc(O)c(OC)c2)ccc1O [white curcumin, 1,7-bis(4-hydroxy-3-methoxyphenyl)heptane-3,5-dione] | – | did not have a significant effect

— patent US20210220301A1, “Pharmaceutical or Nutritional Combination Comprising Beta-Hydroxy-Betamethylbutyrate” (Abbott Laboratories, priority 2016, published 2021)
